Experiment: Stability of the amorphous form, confirmed by PXRD, DSC and TGA
Format: physicochemical
Settings: solid amorphous form
Text: According to the present invention, the obtained amorphous form of Ceritinib is stable up to 180 days. The stability of the amorphous form is confirmed by PXRD, DSC and TGA.
FIG. 2: Powder X-ray diffractogram of an amorphous form of ceritinib of 180 days

stability towards polymorphic conversion: stable towards polymorphic conversion
stability of the amorphous form (time for which it is stable) (confirmed by PXRD, DSC and TGA, storage conditions not given): up to 180 days
SMILES: Cc1cc(Nc2ncc(Cl)c(Nc3ccccc3S(=O)(=O)C(C)C)n2)c(OC(C)C)cc1C1CCNCC1 [amorphous form of Ceritinib]
